Data taken from US20170215432A1, “SYNERGIZED PLANT EXTRACT/ESSENTIAL OIL BLEND COMPRISING BASIL OIL” (VAMA INC., priority 2014, published 2017).

System: Anopheles, Aedes, Stephinsi and Culex mosquito vectors
Assay: Laboratory cage repellency, landing counts on treated sugar-soaked cotton bowls
Type: in vivo
Method: Studies were carried out against each individual species in replicates of three in each of the replicate cage, one hundred 3 to 5-day old sugar—fed female mosquitoes were held. Mosquito that are pre-starved for 4 hr or more prior to testing were used for the experiment.
Five plastic bowls with sugar—soaked cotton (10% in water) were placed at four opposing corners and one in the middle of the cage. These bowls were treated with the specified concentration of the composition described in Example 3, one specified concentration of DEET (know synthetic repellent compound as positive control) and one with only sugar-soaked cotton (Negative control). The four treated bowls were placed in four opposing corners while the untreated negative control in the middle on the floor of the cage. Five-minute landing counts were made at 0, 1, 2, 3, 4, and 6 hours with the cups were removed between the exposure intervals. Mean percent repellency for each percent formulation and species was calculated based on the data of the three replicates at the given times of observation.

CCN(CC)C(=O)c1cccc(C)c1 [DEET]
mosquitoes repelled with reference to the control (after 4 hrs): 79% | mosquitoes repelled (in 4 hrs): 97%
